In one assay the test system is LN18 glioma cells. Briefly: Matrigel invasion assay, LN18 co-cultured with BV2 microglia. Conditions: 11 µM, co-culture with BV2, 18 h. The class given is cell-based, human. On the procedure: BV2 cells were plated onto a 24-well plate at the density of 4×10^4. After 24 h, the invasion assay was performed with tissue culture inserts (6.5 mm Transwell® with 8.0 µm Pore Polycarbonate Membrane Insert, Corning, NY, USA) coated with the Growth Factor Reduced Matrigel™ Matrix (BD Biosciences, San Diego. CA, USA). The Matrigel™ Matrix (50 µL of 1 mg/mL stock solution diluted in fresh DMEM) was dried under sterile conditions (37°C) for 5–6 h. The medium in BV2 cultures was replaced with fresh one 1 h before seeding glioblastoma cells onto the inserts, then LN18 and U87 glioblastoma cells were seeded at 2×10^4/insert on Matrigel-covered membranes in a serum-reduced medium (2% FBS). Untreated glioblastoma cells co-cultured with or without BV2 cells served as positive and negative controls, respectively. Cells were treated with the arginase-1 inhibitors OAT-90, OAT-1617 and OAT-1746 solved in PBS. The cultures were kept in incubator at 37°C with humidified air containing 5% CO2. […] The membranes from Transwell® inserts were cut out and images were acquired using a fluorescence microscope (Leica DM4000B, 10x lens) from the 5 independent fields (bottom; top; left; right side and the middle). Numbers of invading cells were counted using the ImageJ software (NIH, Bethesda, MD, USA). […]

Another assay addresses T1, recombinant human ARG2 (Homo sapiens, UniProt P78540).
T1 construct: made in house; host or cells: E. coli
T1 sequence (P78540 23-354): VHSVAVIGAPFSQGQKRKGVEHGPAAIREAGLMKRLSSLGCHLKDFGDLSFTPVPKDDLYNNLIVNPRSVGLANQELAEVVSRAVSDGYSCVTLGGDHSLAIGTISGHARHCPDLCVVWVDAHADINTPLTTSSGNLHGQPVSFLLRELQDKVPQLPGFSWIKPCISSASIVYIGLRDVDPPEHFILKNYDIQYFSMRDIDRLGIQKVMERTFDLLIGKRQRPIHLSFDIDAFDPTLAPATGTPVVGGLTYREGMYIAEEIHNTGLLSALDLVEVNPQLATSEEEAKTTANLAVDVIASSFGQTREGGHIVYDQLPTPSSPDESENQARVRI
Briefly: Recombinant arginase activity assay, hARG2. Type of assay: biochemical. Particulars: 1 h at 37°C, pH 7.4, 10 mM L-arginine, urea detection; read-out: Inhibition of recombinant hARG2: IC50. How it is done:
The inhibitory activity towards hARG1 and hARG2 enzymes was assessed using recombinant enzymes biosynthesized using a prokaryotic expression system (E. coli) and purified by fast protein liquid chromatography (FPLC). Briefly, recombinant enzymes were incubated with the tested compounds for 1 h at 37°C in the reaction buffer (100 mM sodium phosphate buffer, 130 mM NaCl, 1 mg/mL BSA, pH 7.4) containing substrate (10 mM L-arginine hydrochloride) and cofactor (200 µM MnCl2). The assay is based on the detection of urea, which is generated during the conversion of L-arginine into L-ornithine catalyzed by arginases. To visualize the product, we adding a mixture of reagent A (4 mM oPA, 50 mM boric acid, 1 M sulfuric acid, 0.03% Brij-35) and reagent B (4 mM NED, 50 mM boric acid, 1 M sulfuric acid, 0.03% Brij-35) in equal proportions. The absorbance was measured at 515 nm. The urea production in the absence of any tested compound was considered as maximal enzyme activity. The absorbance in the absence of arginase (background) was considered as zero activity. Two reference compounds OAT-81 (ABH, no. 222638-65-5) and OAT-90 (2-amino-6-borono-2-(2-(3-(2,4-dichlorophenyl)propyloamino)ethyl) hexanoic acid, and two novel inhibitors OAT-1617 and OAT-1746 (the last three synthesized at OncoArendi Therapeutics) were tested. Normalized values were analyzed using GraphPad Prism 7.0 software and the IC50 values were determined.

Entries after “also recorded” stand apart in the source; their conditions may differ.

Usually IC50 stands for the concentration that inhibits the measured activity by half.

Regarding `CN(C)C[C@@H]1CC[C@@H](CCB(O)O)C[C@]1(N)C(=O)O` [OAT-1746], the “microglia-induced invasion of LN18 cells” value in the assay with LN18 glioma cells was “effectively reduced glioma invasion; also recorded: reduced microglia-induced invasion of glioma cells more efficiently”. The concentration for half-maximal inhibition (IC50) at recombinant human ARG2 came to 49 nM.

Values taken from article PMC8422859, “A Novel Oral Arginase 1/2 Inhibitor Enhances the Antitumor Effect of PD-1 Inhibition in Murine Experimental Gliomas by Altering the Immunosuppressive Environment” (Frontiers in Oncology, 2021).
